US20190151283A1, “NON-STEROIDAL SELECTIVE GLUCOCORTICOID RECEPTOR AGONISTIC MODULATORS (SEGRAMs) AND USES THEREOF” (ASSOCIATION POUR LA RECHERCHE À L'IGBMC (ARI), priority 2017, published 2019)

Experiments:
Assay type in all cases: in vivo, mouse
Balb/C mice [1] = assay: Ovalbumin (OVA)-induced allergic conjunctivitis; details: 0.1% instillation D22 to D24, 20 minutes after the last OVA challenge
Procedure: To investigate the anti-inflammatory effect of CpdX or CpdX-D3 on an allergic conjunctivitis, Balb/C mice were intraperitoneally sensitized with 50 μg OVA with alum on both days D1 and D8, and then challenged from D15 to D21 with 250 μg OVA in 5 μL of sterilized vehicle (0.9% NaCl), which were directly instilled onto the conjunctival sac. From D22 to D24, mice were divided into several groups, and received instillations with either OVA alone, OVA together with 0.1% of either Dex, CpdX, CpdX(eA), CpdX(eB), CpdX-D3, CpdX-D3(eA) or CpdX-D3(eB).
The clinical appearance of mouse eyes was evaluated 20 minutes after the last instillation on D24. Clinical signs (conjunctival hyperemia, lid edema and tearing) were scored to evaluate the occurrence and severity of conjunctivitis as described by Gimenes et al. (2015. Experimental Eye Research 134:24-32). Parameters were graded on a scale ranging from 0 to 3, (0=absence, 1=mild, 2=moderate, and 3=severe symptoms), each animal receiving a total clinical score ranging from 0 to 9. The data were expressed as mean±SEM with at least four mice per treatment.

B6 male mice [2] = assay: Corticosterone synthesis and adrenal gland after three-month treatment; details: for plasmatic corticosterone level: at 10 a.m., compared to control mice (Vehicle); for cortex layers, most notably the fasciculata zone, of the adrenal glands / glomerulosa zone of the adrenal cortex / transcripts of Cyp11a, Cyp11b1 and HSD3β genes in adrenal glands: three months; for cortex layers, most notably the fasciculata zone, of the adrenal glands / glomerulosa zone of the adrenal cortex: histology; for glomerulosa zone of the adrenal cortex: 'but not' = not decreased; for transcripts of Cyp11a, Cyp11b1 and HSD3β genes in adrenal glands: q-RT-PCR
Procedure: B6 male mice (8-week-old) were daily subjected for three months to either a subcutaneous injection of vehicle (NaCl 0.9%), Dex, CpdX, CpdX(eA), CpdX(eB), CpdX-D3, CpdX-D3(eA) or CpdX-D3(eB) (1 mg/kg body weight, diluted in vehicle).
Following this long-term treatment, blood was collected at 10 a.m. and 6 p.m. by retro-orbital puncture in lithium-heparin coated vials, and the plasmatic level of corticosterone was determined. Adrenal glands were harvested and weighted. RNA transcripts were extracted and transcripts of the Cyp11a, Cyp11b1, Cyp11b2 and HSD3β genes were analyzed by q-RT-PCR. Histological analyses of the adrenal glands were also carried out.

B6 male mice [3] = assay: Fatty liver after three-month treatment; details: three months; for transcripts of fatty acid synthase (FASN) and Stearoyl-CoA desaturase 1 (SCD1) in liver: q-RT-PCR, 'but not' = no increase; for blood cholesterol and bile acids' levels: 'but not' = no clear increase
Procedure: B6 male mice (8-week-old) were daily subjected for three months to a subcutaneous injection of either vehicle (NaCl 0.9%), Dex, CpdX, CpdX(eA), CpdX(eB), CpdX-D3, CpdX-D3(eA) or CpdX-D3(eB) (1 mg/kg body weight, diluted in vehicle). Following this treatment, blood was collected at 10 a.m. by retro-orbital puncture in lithium-heparin coated vials. The plasmatic levels of total cholesterol and bile acids were determined.
Liver samples were harvested. […] RNA transcripts were extracted from liver samples and the transcripts of fatty acid synthase (FASN) and Stearoyl-CoA desaturase 1 (SCD1) genes were analyzed by q-RT-PCR.

Balb/C mice [4] = assay: Skin atrophy after 8-day topical treatment of dorsal skin; details: for epidermal thickness: eight-day topical treatment, morphometric analysis; for transcription of the REDD1 gene in dorsal skin: topical 8 days, 1 nmole/cm^2, 'but not' = not increased
Text: To investigate whether, similarly to Dex, a topical administration of CpdX could result in a skin atrophy, Balb/C mice were shaved on the dorsal skin. Ethanol (vehicle), Dex, CpdX or either one of its two enantiomers CpdX(eA) or CpdX(eB), as well as the deuterated form CpdX-D3 or either one of its two enantiomers CpdX-D3(eA) or CpdX-D3(eB), were topically applied onto the dorsal skin for 8 days.
Upon completion of the treatments, RNA transcripts were extracted from dorsal skin samples and the transcripts of Kindlin-1 and REDD1 genes were analyzed by q-RT-PCR. Histological and morphometric analyses of the dorsal skin were also performed.

Balb/C mice [5] = assay: Dextran sodium sulfate (DSS)-induced ulcerative colitis; details: for pro-inflammatory genes overexpressed in DSS-induced ulcerative colitis (IL-1β, IL-6, IL-17a, IL-17f, TSLP, MMP13): colon, q-RT-PCR, D14; for colonic villus/crypt structure / mucosal and submucosal cell infiltration: i.p. 1 mg/kg on D11, D12, D13, H&E histology
Procedure: To investigate the anti-inflammatory activity of CpdX and CpdX-D3 on a Th17 ulcerative colitis, Balb/C mice were treated with 3% DSS in drinking water for 13 days, with or without an intraperitoneal administration of either Dex, CpdX, CpdX(eA), CpdX(eB), CpdX-D3, CpdX-D3(eA) or CpdX-D3(eB) (1 mg/kg of body weight) on D11, D12 and D13.
At D14, RNA transcripts were extracted from mouse colons. IL-1β, IL-6, IL-17a, IL-17f, TSLP and MMP13 transcripts were analyzed by q-RT-PCR. Colon samples were also harvested for histological analyses (with H&E staining).

B6 male mice [6] = assay: Bone formation after three-month treatment (micro-CT, WNT16 transcripts); details: s.c. 1 mg/kg daily, three months
Procedure: B6 male mice (8-week-old) were daily subjected for three months to either a subcutaneous injection of vehicle (NaCl 0.9%), Dex, CpdX, CpdX(eA), CpdX(eB), CpdX-D3, CpdX-D3(eA) or CpdX-D3(eB) (1 mg/kg body weight, diluted in NaCl 0.9%).
From each animal included in the experiments, one femur and the ipsilateral tibia were dissected and preserved in 70% ethanol for further bone microstructure analysis by micro-CT. The FX Quantum micro-CT scanner (Perkin Elmer) was used to perform measurements at the distal femur and midshaft tibia. All scans were performed with an isotropic voxel size of 10 μm, 160 μA tube current and 90 kV tube voltage.
Morphological 3D measurements were performed using the CTAn software (Bruker). Cortical bone parameters, which were measured in the tibia midshaft, included measures of the bone volume fraction as compared to the total volume, cortical thickness, total area, bone area and marrow area. The region of interest was selected from below the distal tibial crest and continued for 20 slices toward the proximal end of the tibia. Trabecular bone parameters were measured in the distal metaphysis of the femurs and included bone volume fraction, trabecular thickness, trabecular number and trabecular spacing. The region of interest was selected from below the distal growth plate where the epiphyseal cap structure completely disappeared and continued for 100 slices toward the proximal end of the femur.
The statistical significance as compared to vehicle treatment was calculated through one-way ANOVA test followed by Dunn's multiple comparison test, *p<0.05; **p<0.01; ***p<0.001; ****p<0.0001.

B6 male mice [7] = assay: Blood glucose and intraperitoneal glucose tolerance test after three-month treatment; details: for control of the blood glucose level: three months, conclusion; for blood glucose level in intraperitoneal glucose tolerance test (IPGTT): two-hour period after glucose i.p. injection (2 mg/kg body weight)
Procedure: B6 male mice (8-week-old) were daily subjected for three months to a subcutaneous injection of either vehicle (NaCl 0.9%), Dex, CpdX, CpdX(eA), CpdX(eB), CpdX-D3, CpdX-D3(eA) or CpdX-D3(eB) (1 mg/kg body weight, diluted in vehicle). Mice were over-night-fasted. Mouse blood glucose concentration was measured before (T0) and during two hours (T120) after glucose i.p. injection ([…] body weight).

Row | plasmatic corticosterone level (B6 male mice [2]) | cortex layers, most notably the fasciculata zone, of the adrenal glands (B6 male mice [2]) | glomerulosa zone of the adrenal cortex (B6 male mice [2]) | transcripts of Cyp11a, Cyp11b1 and HSD3β genes in adrenal glands (B6 male mice [2]) | transcripts of fatty acid synthase (FASN) and Stearoyl-CoA desaturase 1 (SCD1) in liver (B6 male mice [3]) | blood cholesterol and bile acids' levels (B6 male mice [3]) | epidermal thickness (Balb/C mice [4]) | transcription of the REDD1 gene in dorsal skin (Balb/C mice [4]) | bone formation in cortical and trabecular bones (B6 male mice [6]) | Structure (SMILES) | clinical signs of allergic conjunctivitis (conjunctival hyperemia, lid edema and tearing) (Balb/C mice [1]) | pro-inflammatory genes overexpressed in DSS-induced ulcerative colitis (IL-1β, IL-6, IL-17a, IL-17f, TSLP, MMP13) (Balb/C mice [5]) | colonic villus/crypt structure (Balb/C mice [5]) | mucosal and submucosal cell infiltration (Balb/C mice [5]) | control of the blood glucose level (B6 male mice [7]) | blood glucose level in intraperitoneal glucose tolerance test (IPGTT) (B6 male mice [7])
1 | much higher | markedly increased | but not | increased | but not | but not | not significantly decreased | but not | did not affect | [2H]C([2H])([2H])Oc1ccc(F)cc1C(C)(C)CC(O)(CNc1ccc2c(c1)COC2=O)C(F)(F)F (stereo not drawn) [CpdX-D3(eA), 5-{4-[2-(methoxy-D3)-5-fluorophenyl]-2-hydroxy-4-methyl-2-(trifluoromethyl)pentylamino}isobenzofuran-1(3H)-one] | considerably reduced | similarly repressed | almost reestablished | significantly decreased | does not significantly affect | no significant difference
2 | much higher | markedly increased | but not | increased | but not | but not | not significantly decreased | but not | did not affect | [2H]C([2H])([2H])Oc1ccc(F)cc1C(C)(C)CC(O)(CNc1ccc2c(c1)COC2=O)C(F)(F)F (stereo not drawn) [CpdX-D3(eB), 5-{4-[2-(methoxy-D3)-5-fluorophenyl]-2-hydroxy-4-methyl-2-(trifluoromethyl)pentylamino}isobenzofuran-1(3H)-one] | considerably reduced | similarly repressed | almost reestablished | significantly decreased | does not significantly affect | no significant difference
